{
  "source": "patent US8986736B2",
  "about": "“Method for delivering particulate drugs to tissues” (Baxter International Inc., priority 2003, dated 2015)",
  "origin": "cited, not measured here",
  "test_system": "HIV-infected macrophages",
  "data": [
    {"molecule": "CC(C)(C)NC(=O)[C@@H]1C[C@@H]2CCCC[C@@H]2CN1C[C@@H](O)[C@H](Cc1ccccc1)NC(=O)[C@H](CC(N)=O)NC(=O)c1ccc2ccccc2n1", "note": "[saquinavir]", "values": [
      {"measurement": "activity in chronically HIV-infected macrophages", "setting": "100 nM, in solution", "value": "completely inactive"},
      {"measurement": "antiviral activity", "setting": "aqueous solution, HIV-infected macrophages", "value": "little antiviral activity"}
    ]}
  ]
}
